Measurements from PubChem BioAssay (NCI).
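Step 1: Grow cells in 96-well plates. Step 2: Expose to compound for 48 hours at 5 concentrations. Step 3: Interpolate endpoints linearly; if unreached, use highest concentration. TGI denotes the concentration required for complete inhibition of growth.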

Legend:
Experiment in all cases: NCI tumour cell line growth inhibition, 48 h
786-0 renal = tested on: 786-0 renal
A498 renal = tested on: A498 renal
A549 NSCLC = tested on: A549 NSCLC
ACHN renal = tested on: ACHN renal
BT-549 breast = tested on: BT-549 breast
CAKI-1 renal = tested on: CAKI-1 renal
CCRF-CEM leukemia = tested on: CCRF-CEM leukemia
COLO 205 colon = tested on: COLO 205 colon
DU-145 prostate = tested on: DU-145 prostate
EKVX NSCLC = tested on: EKVX NSCLC
HCC-2998 colon = tested on: HCC-2998 colon
HCT-116 colon = tested on: HCT-116 colon
HCT-15 colon = tested on: HCT-15 colon
HL-60(TB) leukemia = tested on: HL-60(TB) leukemia
HOP-62 NSCLC = tested on: HOP-62 NSCLC
HOP-92 NSCLC = tested on: HOP-92 NSCLC
HS 578T breast = tested on: HS 578T breast
HT29 colon = tested on: HT29 colon
IGROV1 ovarian = tested on: IGROV1 ovarian
K-562 leukemia = tested on: K-562 leukemia
KM12 colon = tested on: KM12 colon
LOX IMVI melanoma = tested on: LOX IMVI melanoma
M14 melanoma = tested on: M14 melanoma
MALME-3M melanoma = tested on: MALME-3M melanoma
MCF7 breast = tested on: MCF7 breast
MDA-MB-231 breast = tested on: MDA-MB-231 breast
MDA-MB-435 = tested on: MDA-MB-435
MDA-N = tested on: MDA-N
MOLT-4 leukemia = tested on: MOLT-4 leukemia
NCI-H226 lung = tested on: NCI-H226 lung
NCI-H23 lung = tested on: NCI-H23 lung
NCI-H460 lung = tested on: NCI-H460 lung
NCI/ADR-RES ovarian = tested on: NCI/ADR-RES ovarian
OVCAR-3 ovarian = tested on: OVCAR-3 ovarian
OVCAR-4 ovarian = tested on: OVCAR-4 ovarian
OVCAR-5 ovarian = tested on: OVCAR-5 ovarian
OVCAR-8 ovarian = tested on: OVCAR-8 ovarian
PC-3 prostate = tested on: PC-3 prostate
SF-295 CNS = tested on: SF-295 CNS
SF-539 CNS = tested on: SF-539 CNS
SK-MEL-2 melanoma = tested on: SK-MEL-2 melanoma
SK-MEL-28 melanoma = tested on: SK-MEL-28 melanoma
SK-MEL-5 melanoma = tested on: SK-MEL-5 melanoma
SK-OV-3 ovarian = tested on: SK-OV-3 ovarian
SN12C renal = tested on: SN12C renal
SNB-19 CNS = tested on: SNB-19 CNS
SNB-75 CNS = tested on: SNB-75 CNS
SR leukemia = tested on: SR leukemia
SW-620 colon = tested on: SW-620 colon
T-47D breast = tested on: T-47D breast
TK-10 renal = tested on: TK-10 renal
U251 CNS = tested on: U251 CNS
UACC-257 melanoma = tested on: UACC-257 melanoma
UACC-62 melanoma = tested on: UACC-62 melanoma
UO-31 renal = tested on: UO-31 renal

With `Cc1ccc(Cc2nc(=S)[nH][nH]2)cc1` the TGI (786-0 renal) was > 100 µM, the TGI (A498 renal) was > 100 µM and the TGI (A549 NSCLC) was > 100 µM. For the same molecule, the TGI (ACHN renal) was > 100 µM, the TGI (BT-549 breast) was > 100 µM and the TGI (CAKI-1 renal) was > 100 µM. For the same molecule, the TGI (CCRF-CEM leukemia) was > 100 µM, the TGI (COLO 205 colon) was > 100 µM and the TGI (DU-145 prostate) was > 100 µM. For the same molecule, the TGI (EKVX NSCLC) was > 100 µM, the TGI (HCC-2998 colon) was > 100 µM and the TGI (HCT-116 colon) was > 100 µM. For the same molecule, the TGI (HCT-15 colon) was > 100 µM, the TGI (HL-60(TB) leukemia) was 97.9 µM and the TGI (HOP-62 NSCLC) was > 100 µM. The TGI (HOP-92 NSCLC) was > 100 µM, the TGI (HS 578T breast) was > 100 µM and the TGI (HT29 colon) was > 100 µM. The TGI (IGROV1 ovarian) was > 100 µM, the TGI (K-562 leukemia) was > 100 µM and the TGI (KM12 colon) was > 100 µM. For the same molecule, the TGI (LOX IMVI melanoma) was > 100 µM, the TGI (M14 melanoma) was > 100 µM and the TGI (MALME-3M melanoma) was > 100 µM. The TGI (MCF7 breast) was > 100 µM, the TGI (MDA-MB-231 breast) was > 100 µM and the TGI (MDA-MB-435) was > 100 µM. For the same molecule, the TGI (MDA-N) was > 100 µM, the TGI (MOLT-4 leukemia) was > 100 µM and the TGI (NCI-H226 lung) was > 100 µM. The TGI (NCI-H23 lung) was > 100 µM, the TGI (NCI-H460 lung) was > 100 µM and the TGI (NCI/ADR-RES ovarian) was > 100 µM. The TGI (OVCAR-3 ovarian) was > 100 µM, the TGI (OVCAR-4 ovarian) was 96.5 µM and the TGI (OVCAR-5 ovarian) was > 100 µM. For the same molecule, the TGI (OVCAR-8 ovarian) was > 100 µM, the TGI (PC-3 prostate) was > 100 µM and the TGI (SF-295 CNS) was > 100 µM. The TGI (SF-539 CNS) was > 100 µM, the TGI (SK-MEL-2 melanoma) was > 100 µM and the TGI (SK-MEL-28 melanoma) was > 100 µM. For the same molecule, the TGI (SK-MEL-5 melanoma) was > 100 µM, the TGI (SK-OV-3 ovarian) was > 100 µM and the TGI (SN12C renal) was > 100 µM. The TGI (SNB-19 CNS) was > 100 µM, the TGI (SNB-75 CNS) was > 100 µM and the TGI (SR leukemia) was > 100 µM. The TGI (SW-620 colon) was > 100 µM, the TGI (T-47D breast) was > 100 µM and the TGI (TK-10 renal) was > 100 µM. The TGI (U251 CNS) was > 100 µM, the TGI (UACC-257 melanoma) was > 100 µM and the TGI (UACC-62 melanoma) was > 100 µM. The TGI (UO-31 renal) was > 100 µM.
